{"source": "patent US11369611B2", "about": "“Therapeutic compounds and uses thereof” (Kala Pharmaceuticals, Inc., priority 2013, dated 2022)", "key": {"[1]": {"assay": "Particle size of compounds milled with PLURONIC F127 as MPP (dynamic light scattering)", "format": "physicochemical", "details": "formulated as MPP, milled with PLURONIC F127, DPBS buffered", "source_text": "The compounds of the present invention synthesized in accordance with the preceding Examples were formulated as mucus penetrating particles (MPP). Specifically, Compound 4 of Example 1, Compound 9 of Example 2, and Compound 13 of Example 3 were each milled in the presence of PLURONIC F127 (F127) to determine whether F127 1) aids particle size reduction to several hundreds of nanometers and 2) physically (non-covalently) coats the surface of generated nanoparticles with a mucoinert coating that would minimize particle interactions with mucus constituents and prevent mucus adhesion.\nA milling procedure was employed in which an aqueous dispersion containing coarse drug particles and PLURONIC F127 (F127) was milled with grinding medium until particle size was reduced below 400 nm as measured by dynamic light scattering. Table 4 lists the size of particles and polydispersity index (a measure of the width of the particle size distribution) generated using this technique. In this example suspensions were buffered using DPBS (Dulbecco's Phosphate-Buffered Saline) which yields a suspension that is both isotonic and has a physiologically relevant pH."}, "[2]": {"assay": "Draize ocular irritation assessment", "format": "in vivo", "details": "MPP 0.5%, 50 μL topical BID 5 days, Dutch-belted rabbits", "source_text": "Dutch-belted rabbits were used in these studies."}}, "data": [{"smiles": "COc1cc2c(Oc3ccc4[nH]c(C)cc4c3F)ncnc2cc1OCCCN1CCC2(CC1)COC2", "note": "[Compound 4, 7-(3-(4-(4-fluoro-2-methyl-1H-indol-5-yloxy)-6-methoxyquinazolin-7-yloxy)propyl)-2-oxa-7-azaspiro[3.5]nonane]", "values": [{"measurement": "Particle Size", "setting": "[1]", "result": 270, "unit": "nm"}, {"measurement": "Draize-Ocular Irritation", "setting": "[2]", "result": "no irritation was seen"}]}]}
